According to patent US10780094B2, “Use of carbonic anhydrase inhibitors for treatment of neurological and psychiatric disorders” (New York University, priority 2016, dated 2020):

Tests used:
D3 cells [1] = experiment: ATP measurement (CellTiter-Glo); type: cell-based, human
Description: (§1) Steady state levels of ATP were estimated using the Cell Titter-Glo, according to manufacturer's instructions. Briefly, 5×10^3 cells per well of both D3 and SHSY cells were plated on 96-wells plates. The day after, cells were treated with either 10 μM Q22 or 50 μM Ab42 peptides, respectively. Peptides were added alone or in combination with increasing concentrations of MTZ (100 and 300 μM) or AZT (30 and 300 μM). Controls were treated with either DMSO or 5 μM oligomycin. After 3 hours of treatment, the plates containing the cells were equilibrated to room temperature for 30 minutes prior to addition of the luciferin/luciferase/cell lysis mixture. Absolute luminescence from quadruplicate experiments was recorded using a SpectraMax plate reader (Molecular Devices, Sunnyvalem Calif., US).

SH-SY5Y cells [2] = experiment: ATP measurement (CellTiter-Glo); type: cell-based, human; conditions: oligomycin 5 μM control; p<0.0001
Description: as §1

[3] = references (44, 45); cited from earlier work
mitochondrial CA = conditions: reference (16); cited from earlier work
SH-SY5Y neuronal cells = experiment: TMRM assay of mitochondrial membrane potential (ΔΨ); type: cell-based, human; conditions: 40 μM FCCP
Description: (§2) Briefly, cells were plated on 25 mm optical borosilicate poly-L-lysine-coated sterile glass covers (ThermoFisher, Waltham, Mass., US) at a 70% confluence. The day after, cells were washed twice with HBSS and charged with 600 nM TMRM on HBSS. Cells were then incubated for 20 min in the incubator, at 37° C. and washed again with HBSS. After that, the medium was replaced by HBSS containing 150 nM of tetramethylrhodamine methyl ester (TMRM), in order to maintain the equilibrium distribution of the fluorophore. Cells were then mounted on Sykes-Moores chambers (BellCo, Vineland, N.J., US) and treated with the different drugs and/or peptides. An image was taken at minute 0 and at minute 45, after adding the drugs and/or peptides. In this experiment, the peptide was pre-aggregated as above before adding it to the cells.

[4] = test system: D3 cerebral microvascular endothelial cells; experiment: as above; type: cell-based, human; conditions: 40 μM FCCP
Description: as §2

caspase 9 in glial cells = experiment: Caspase-Glo 9 activity after Aβ challenge; type: cell-based, human; conditions: 10 μM Aβ42; 24 hours; no drug
Description: (§3) Caspase 9 and caspase 3/7 activation was measured by luminescent assays (Caspase-Glo 9 and caspase-Glo 3/7, Promega, Madison, Wis.), in cells treated with the Aβ peptides in DMEM without FBS. Briefly, 10,000 cells/well were plated in 96 wells plates and incubated for 24 hours with the freshly solubilized Aβ peptides. Caspase-Glo reagent was added to the cell cultures resulting in cell lysis, followed by caspase cleavage of the substrate and generation of a luminescent signal produced by the luciferase reaction. After 40 minutes incubation, the amount of caspase activity was evaluated in a plate-reading luminometer (Synergy HT Multi-Mode Microplate Reader, Biotek, Winooski, Vt.) as described in (Fossati et al., 2012b). To inhibit non-specific background activity, the proteasome inhibitor MG-132 was added to the Caspase-Glo reagent before the experiment as indicated by the manufacturer. In all cases results are expressed as fold-change compared to untreated control cells.

[5] = test system: caspase 9 in SH-SY5Y neuronal cells; experiment: Caspase-Glo 9 activity after Aβ challenge; type: cell-based, human; conditions: 10 μM Aβ42; 24 hours; no drug
Description: as §3
Cells were plated at a confluence of 10.000 cells per well in 96-wells microplate luminescence microtiter (ThermoFisher, Waltham, Mass., US). The day after, cells were treated with the peptides and/or drugs for the experimental times. After that, caspase-Glo 9 assay was performed, following the protocol provided from the manufacturer. Luminescence was measured using a FlexStation 3 Multi-Mode Microplate Reader (Molecular devices, Sunnyvalem Calif., US).

D3 cells [6] = experiment: Mitochondrial and cytoplasmic calcium assay (Rhod-2 AM, Fluo-4 AM); type: cell-based, human; conditions: Ionomycin 5 μM at the end of the experiments
Description: (§4) This assay was performed as published in [60]. Briefly, cells were plated on 25 mm optical borosilicate poly-L-lysine-coated sterile glass covers, (ThermoFisher, Waltham, Mass., US) at a 70% confluence. 24 hours later, cells were loaded with 5 μM Rhod-2 AM or 2.5 μM Fluo-4 AM on HBSS for 45 minutes. Then, cells were washed twice with HBSS and incubated for another additional 15 minutes on fresh HBSS, without Rhod-2 AM or Fluo-4 AM. After that, HBSS was replaced again by fresh HBSS, glasses were mounted on microscopy chambers and experiments were conducted, after adding the pre-aggregated peptides and/or the drugs. Cells were mounted on Sykes-Moores chambers (BellCo, Vineland, N.J., US) and imaged every 15 seconds for 45 min, at a 20× magnification, using a Nikon fluorescent microscope (Chiyoda, Tokyo, Japan). Images were processed using NIS-Elements and ImageJ software. Due to the rapidity of this experiment, the peptide was pre-aggregated as described above to obtain oligomers before being added to the cells.

SH-SY5Y cells [7] = experiment: as above; type: cell-based, human; conditions: Ionomycin 5 μM at the end of the experiments
Description: as §4

CC[C@H]1/C=C/C=C/C[C@@H](C)[C@H](O)[C@@](C)(O)C(=O)[C@@H](C)[C@H](O)[C@@H](C)C(=O)[C@@H](C)[C@H](O)[C@@H](C)/C=C/C(=O)O[C@@H]2[C@H](C)[C@H](CC1)O[C@]1(CC[C@H](C)[C@H](C[C@@H](C)O)O1)[C@H]2C [oligomycin]
increase in ATP luminescence (D3 cells [1]; oligomycin 5 μM, p=0.0002): 32.4% | decrease in ATP levels (SH-SY5Y cells [2]): 34%

CCOc1ccc2nc(S(N)(=O)=O)sc2c1 [ETZ, ethoxzolamide]
ROS formation and cell death induced by high glucose [3]: inhibit ROS formation and cell death | activity on mitochondrial CA (mitochondrial CA): high activity

N#CC(C#N)=NNc1ccc(OC(F)(F)F)cc1 [FCCP, p-trifluoromethoxyphenylhydrazone]
mitochondrial depolarization after treatment with drugs and peptides (SH-SY5Y neuronal cells): further depolarized | mitochondrial depolarization after treatment with drugs and peptides [4]: further depolarized

Aβ42: Synthetic homologue of the amyloid subunit Aβ42, used to challenge cells
caspase 9 activation increase compared to control cells (caspase 9 in glial cells): about 1.5 times | caspase 9 activation increase compared to control cells [5]: about 1.5 times

Aβ40-Q22: Synthetic Aβ40, the Dutch genetic variant, containing the E22Q substitution
increase in steady state ATP levels (D3 cells [1]; peptide alone, p=0.001): 21.6%

C[C@H](CCC(=O)O)C[C@H](C)C[C@H](C)C(=O)/C=C(\O)[C@H](C)C[C@H](C)C/C=C/[C@@H](C)[C@@H](O)[C@@H](C)[C@@H](O)C[C@@H]1CC[C@@](C)([C@H]2CC[C@@](C)([C@@H](C)O)O2)O1 [Ionomycin]
mitochondrial and cytoplasmic calcium levels (D3 cells [6]): increase in mitochondrial and cytoplasmic calcium levels | mitochondrial and cytoplasmic calcium levels (SH-SY5Y cells [7]): increase in mitochondrial and cytoplasmic calcium levels
